Our source for the TGI and GI50 values is PubChem BioAssay (NCI).

The structures appear in SMILES notation.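 Five compound concentrations were applied to cells in 96-well plates for 48 hours; endpoints were derived by simple linear interpolation of the resulting dose-response curve. Abbreviation: GI50, concentration required for 50% inhibition of growth. TGI denotes the concentration required for complete inhibition of growth.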

Among the test systems are SN12C renal; CAKI-1 renal; SW-620 colon; HOP-92 NSCLC; UO-31 renal; ACHN renal; DU-145 prostate; MDA-MB-435; NCI/ADR-RES ovarian; MCF7 breast.
Common to all, as to experiment: NCI-60 cell line screen, 48 h

As to `BrC1=CC=C2NCCCCCCN=C3C=CC(Br)=CC=C3NCCCCCCN=C2C=C1`, the TGI in the assay on SN12C renal, in the assay on CAKI-1 renal, in the assay on SW-620 colon, in the assay with HOP-92 NSCLC, with UO-31 renal and in the assay with ACHN renal was > 25.5 µM throughout.
As for `CC1(C)CC(=O)C(=[N+]=[N-])C(=O)C1`, the TGI in the assay with SN12C renal, in the assay with CAKI-1 renal, with SW-620 colon, in the assay on HOP-92 NSCLC and with ACHN renal was > 100 µM in each case.
For the compound `c1cc[c]([Sn]([S]c2cccc3cccnc23)([S]c2cccc3cccnc23)[c]2ccccc2)cc1`, the GI50 was 0.284 µM in the assay on SN12C renal; 0.134 µM in the assay on CAKI-1 renal; 0.14 µM in the assay on SW-620 colon; 0.158 µM in the assay on HOP-92 NSCLC; 0.182 µM with UO-31 renal; 0.209 µM in the assay on ACHN renal. For the same compound, the TGI turned out to be 0.954 µM in the assay on SN12C renal; 0.43 µM in the assay on CAKI-1 renal; 0.365 µM in the assay with SW-620 colon; 0.493 µM in the assay on HOP-92 NSCLC; 0.514 µM in the assay with UO-31 renal; 0.496 µM in the assay on ACHN renal.
Regarding `CC(C(=O)c1ccc(Cl)cc1)C1OC(=O)C(Cl)=C1Cl` (stereo not drawn), the TGI was 56.3 µM in the assay with SN12C renal, > 100 µM with SW-620 colon, > 100 µM in the assay with UO-31 renal and > 100 µM in the assay with ACHN renal.
Take `Cc1cccc2c1O/C(=C\c1ccc([N+](=O)[O-])o1)C2=O`: the GI50 in the assay on SN12C renal is 1.57 µM; in the assay on CAKI-1 renal, 0.494 µM; with SW-620 colon, 0.223 µM; in the assay with DU-145 prostate, 0.659 µM; with HOP-92 NSCLC it was 1.16 µM; with UO-31 renal, 1.09 µM. The values for the GI50 in the assay on MDA-MB-435, in the assay with ACHN renal and in the assay with NCI/ADR-RES ovarian were 1.02 µM, 0.367 µM and 2.54 µM, respectively. For the same compound, the TGI in the assay on SN12C renal came out at 4.25 µM; in the assay on CAKI-1 renal, 1.8 µM; in the assay on SW-620 colon, 0.864 µM; in the assay with DU-145 prostate, 2.12 µM; in the assay with HOP-92 NSCLC, 2.95 µM; in the assay on UO-31 renal, 2.49 µM. The TGI is 2.46 µM in the assay on MDA-MB-435, 1.44 µM with ACHN renal and > 60.4 µM in the assay on NCI/ADR-RES ovarian.
For `CCCCN(CCCC)C(=O)C(=O)C(C)C(=O)CC` (stereo not drawn), the TGI in the assay on SN12C renal, in the assay on CAKI-1 renal, in the assay on SW-620 colon, in the assay with HOP-92 NSCLC, with UO-31 renal and in the assay with ACHN renal was > 100 µM in each case.
On to `CCCCCC(O)(CCCCC)CCCCCCCCC1=C(O)c2[nH]c(=O)ccc2C(=O)C1=O`, for which the TGI in the assay on SN12C renal came out at 21 µM; in the assay on CAKI-1 renal, 32 µM; with SW-620 colon it was 20.6 µM; in the assay on HOP-92 NSCLC it was 28.1 µM; with UO-31 renal it was 26.1 µM; with ACHN renal, 19.2 µM.
As to `c1ccc2cc(Cn3c[n+](Cc4ccc5ccccc5c4)c4ccccc43)ccc2c1`, the GI50 was 1.27 µM in the assay with SW-620 colon; 1.51 µM in the assay with DU-145 prostate; 0.192 µM in the assay with HOP-92 NSCLC; 1.74 µM in the assay with UO-31 renal; 1.37 µM with MDA-MB-435; 1.94 µM in the assay on ACHN renal. For the same compound, in the assay with NCI/ADR-RES ovarian, the GI50 was 16.6 µM. The TGI in the assay on SW-620 colon was determined as 2.75 µM; with DU-145 prostate it was 2.88 µM; in the assay on HOP-92 NSCLC, 1.57 µM; in the assay on UO-31 renal, 4.62 µM; in the assay on MDA-MB-435, 2.74 µM; with ACHN renal, 4 µM. The same compound yielded a TGI in the assay on NCI/ADR-RES ovarian of 61.8 µM.
Consider `CCCCCCNc1nc(N2CCOCC2)c2[nH]c(NCCCCCC)nc2n1`, for which the GI50 in the assay on SN12C renal was 1.76 µM; in the assay on CAKI-1 renal it was 1.53 µM; in the assay on SW-620 colon it was 1.44 µM; in the assay with DU-145 prostate, 1.51 µM; in the assay with UO-31 renal it was 1.36 µM; in the assay on ACHN renal, 1.6 µM. Moreover, the GI50 with NCI/ADR-RES ovarian is 1.59 µM. The TGI with SN12C renal came to 3.32 µM; in the assay with CAKI-1 renal, 2.97 µM; in the assay on SW-620 colon, 2.76 µM; in the assay with DU-145 prostate, 2.83 µM; in the assay on UO-31 renal it was 2.84 µM; with ACHN renal, 2.95 µM. In addition, the TGI with NCI/ADR-RES ovarian stood at 2.97 µM.
Regarding `COc1cc(Cl)c2c3c(c(C(=O)c4ccccc4)oc13)CCC2`, the TGI in the assay with SN12C renal, with CAKI-1 renal, in the assay on SW-620 colon and with ACHN renal was > 100 µM throughout.
Consider `CO[C@@]12C[C@H]3[C@@H]([C@@H](O)[C@@H](OC(=O)/C=C/c4ccccc4)[C@@]4(O)C(C)(C)CCC[C@]34C)[C@@H](C)C1=CC(=O)O2`, for which the GI50 is 4.84 µM with SN12C renal; 6.76 µM with CAKI-1 renal; 12.2 µM in the assay on SW-620 colon; 8.68 µM in the assay on MCF7 breast; 13.4 µM with DU-145 prostate; 16.6 µM in the assay with UO-31 renal. Besides, the figures for the GI50 in the assay with MDA-MB-435, in the assay on ACHN renal and with NCI/ADR-RES ovarian were 4.85 µM, 4.16 µM and 11 µM, respectively. For the same compound, the TGI in the assay on SN12C renal is 19.5 µM; in the assay with CAKI-1 renal it was 30.8 µM; in the assay on SW-620 colon, 31.5 µM; in the assay with MCF7 breast, > 100 µM; with DU-145 prostate, 78.8 µM; in the assay with UO-31 renal it was > 100 µM. Further, the TGI in the assay on MDA-MB-435 was 28.2 µM; in the assay on ACHN renal, 17.8 µM; in the assay with NCI/ADR-RES ovarian, > 100 µM.
As for `COc1cc2c([C@@H](OC(=O)c3ccccc3)c3ccc4c(c3)OCO4)nccc2c(OC)c1OC`, the TGI is > 100 µM in the assay with SN12C renal; > 100 µM in the assay on CAKI-1 renal; > 100 µM with SW-620 colon; > 100 µM with HOP-92 NSCLC; 24.9 µM in the assay with UO-31 renal.
With `C#C[C@H](CCCC)OC(=O)N[C@H](C)c1ccccc1`, the TGI with SN12C renal is > 100 µM; in the assay with CAKI-1 renal, > 100 µM; in the assay on SW-620 colon, > 100 µM; in the assay on HOP-92 NSCLC, > 100 µM; in the assay with UO-31 renal, 75.8 µM; in the assay with ACHN renal it was > 100 µM.
